The target in this assay is T1, Human TRPC6 (Homo sapiens, UniProt Q9Y210).
T1 construct: expressed in transfected cells
T1 sequence (Q9Y210 1-931): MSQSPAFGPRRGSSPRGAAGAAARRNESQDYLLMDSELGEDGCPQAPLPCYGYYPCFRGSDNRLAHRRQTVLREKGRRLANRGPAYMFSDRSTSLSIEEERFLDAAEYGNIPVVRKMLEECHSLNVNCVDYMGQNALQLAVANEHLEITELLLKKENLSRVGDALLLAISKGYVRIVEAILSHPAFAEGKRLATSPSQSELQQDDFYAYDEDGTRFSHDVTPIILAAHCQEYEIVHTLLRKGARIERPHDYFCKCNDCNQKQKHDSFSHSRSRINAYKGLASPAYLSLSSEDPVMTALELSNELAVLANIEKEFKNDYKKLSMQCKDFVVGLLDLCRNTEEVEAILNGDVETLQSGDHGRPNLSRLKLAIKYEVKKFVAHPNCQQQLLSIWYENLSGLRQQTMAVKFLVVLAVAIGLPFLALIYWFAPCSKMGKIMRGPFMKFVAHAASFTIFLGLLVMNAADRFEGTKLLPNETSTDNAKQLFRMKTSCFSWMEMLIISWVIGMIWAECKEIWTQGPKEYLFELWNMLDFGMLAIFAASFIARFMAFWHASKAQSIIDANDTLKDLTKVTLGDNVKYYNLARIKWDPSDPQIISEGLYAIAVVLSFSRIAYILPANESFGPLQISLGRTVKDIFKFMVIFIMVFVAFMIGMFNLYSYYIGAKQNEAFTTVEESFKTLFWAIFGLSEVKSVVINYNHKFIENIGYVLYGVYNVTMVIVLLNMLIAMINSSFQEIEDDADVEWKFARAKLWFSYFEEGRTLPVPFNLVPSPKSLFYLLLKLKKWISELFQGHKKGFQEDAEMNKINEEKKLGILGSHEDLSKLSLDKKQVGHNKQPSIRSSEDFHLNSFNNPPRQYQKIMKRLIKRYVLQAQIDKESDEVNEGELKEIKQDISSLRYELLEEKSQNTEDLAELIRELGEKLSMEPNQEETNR
As to the kind of experiment: Evaluation of TRPC6 channel inhibitory activity (1), FLIPR Calcium 5 Assay Kit, OAG stimulation (Compound Nos. 1-1293). In kind it is cell-based. The settings on record: Human TRPC6 stably-expressing cells, OAG 30 μM, FLIPR Calcium 5 Assay Kit; read-out: Inhibitory activity (pIC50 class) (converted). The gist of the method: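 Stable human TRPC6 line; fluorescent Ca2+ dye loading, then 20 min compound exposure before 30 μM OAG trigger. Peak-minus-baseline signal converted to % inhibition against untreated and unstimulated wells; potency given as pIC50 band.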

Consider `Cc1nc(Oc2cc(C#N)ccc2-c2ncc(CCN)cn2)cc(N2CCCC2=O)n1` [compound 880, 4-[5-(2-aminoethyl)pyrimidin-2-yl]-3-[2-methyl-6-(2-oxopyrrolidin-1-yl)pyrimidin-4-yl]oxybenzonitrile], for which the IC50 is 10 to 1000 nM.
As to `Cc1nc(Oc2cc(C#N)ccc2-c2ncc(CCN)cn2)cc(N2C=NCCC2)n1` [compound 881, 4-[5-(2-aminoethyl)pyrimidin-2-yl]-3-[6-(5,6-dihydro-4H-pyrimidin-1-yl)-2-methylpyrimidin-4-yl]oxybenzonitrile], the IC50 is more than 1000 nM.
Next, `Cc1nc(Oc2cc(C#N)ccc2-c2ncc(CN)cn2)cc(N2CCC2=O)n1` [compound 882, 4-[5-(aminomethyl)pyrimidin-2-yl]-3-[2-methyl-6-(2-oxoazetidin-1-yl)pyrimidin-4-yl]oxybenzonitrile]: more than 1000 nM.
Next, `Cc1nc(OCC2CC2(F)F)cc(Oc2cc(C#N)ccc2-c2ncc(CCN)cn2)n1` (centres unmarked) [compound 883, 4-[5-(2-aminoethyl)pyrimidin-2-yl]-3-[6-[(2,2-difluorocyclopropyl)methoxy]-2-methylpyrimidin-4-yl]oxybenzonitrile]: 10 to 1000 nM.
On to `Cc1nc(OCC(F)(F)F)cc(Oc2cc(C#N)ccc2-c2ncc(CCN)cn2)n1` [compound 884, 4-[5-(2-aminoethyl)pyrimidin-2-yl]-3-[2-methyl-6-(2,2,2-trifluoroethoxy)pyrimidin-4-yl]oxybenzonitrile], for which the IC50 is 10 to 1000 nM.
Under `Cc1nc(OCC2(C)COC2)cc(Oc2cc(C#N)ccc2-c2ncc(CCN)cn2)n1` [compound 885, 4-[5-(2-aminoethyl)pyrimidin-2-yl]-3-[2-methyl-6-[(3-methyloxetan-3-yl)methoxy]pyrimidin-4-yl]oxybenzonitrile] stands more than 1000 nM; under `Cc1nc(Oc2cc(C#N)ccc2-c2ncc(CCN)cn2)cc(OC2COC2)n1` [compound 886, 4-[5-(2-aminoethyl)pyrimidin-2-yl]-3-[2-methyl-6-(oxetan-3-yloxy)pyrimidin-4-yl]oxybenzonitrile], more than 1000 nM.
With `Cc1nc(Oc2cc(C#N)ccc2-c2ncc(CCN)cn2)cc(OC2CCC2)n1` [compound 887, 4-[5-(2-aminoethyl)pyrimidin-2-yl]-3-(6-cyclobutyloxy-2-methylpyrimidin-4-yl)oxybenzonitrile], the IC50 is 10 to 1000 nM.
Next, `Cc1nc(Oc2cc(C#N)ccc2-c2ncc(CCN)cn2)cc(O[C@H]2CCOC2)n1` [compound 888, 4-[5-(2-aminoethyl)pyrimidin-2-yl]-3-[2-methyl-6-[(3S)-oxolan-3-yl]oxypyrimidin-4-yl]oxybenzonitrile]: 10 to 1000 nM; `Cc1nc(Oc2cc(C#N)ccc2-c2ncc(CCN)cn2)cc(O[C@@H]2CCOC2)n1` [compound 889, 4-[5-(2-aminoethyl)pyrimidin-2-yl]-3-[2-methyl-6-[(3R)-oxolan-3-yl]oxypyrimidin-4-yl]oxybenzonitrile]: more than 1000 nM.
Take `COCCOc1cc(Oc2cc(C#N)ccc2-c2ncc(CCN)cn2)nc(C)n1` [compound 890, 4-[5-(2-aminoethyl)pyrimidin-2-yl]-3-[6-(2-methoxyethoxy)-2-methylpyrimidin-4-yl]oxybenzonitrile]: the IC50 is 10 to 1000 nM.
Next, `Cc1nc(OCC(F)F)cc(Oc2cc(C#N)ccc2-c2ncc(CCN)cn2)n1` [compound 891, 4-[5-(2-aminoethyl)pyrimidin-2-yl]-3-[6-(2,2-difluoroethoxy)-2-methylpyrimidin-4-yl]oxybenzonitrile]: 10 to 1000 nM.
Regarding `Cc1nc(Oc2cc(C#N)ccc2-c2ncc(CCN)cn2)cc(OC2CC2)n1` [compound 892, 4-[5-(2-aminoethyl)pyrimidin-2-yl]-3-(6-cyclopropyloxy-2-methylpyrimidin-4-yl)oxybenzonitrile], the IC50 is 10 to 1000 nM.
Consider `Cc1nc(OCC(F)(F)F)cc(Oc2cc(C#N)ccc2-c2ncc(CN)cn2)n1` [compound 893, 4-[5-(aminomethyl)pyrimidin-2-yl]-3-[2-methyl-6-(2,2,2-trifluoroethoxy)pyrimidin-4-yl]oxybenzonitrile], for which the IC50 was more than 1000 nM.
As to `Cc1nc(OCC2(C)COC2)cc(Oc2cc(C#N)ccc2-c2ncc(CN)cn2)n1` [compound 894, 4-[5-(aminomethyl)pyrimidin-2-yl]-3-[2-methyl-6-[(3-methyloxetan-3-yl)methoxy]pyrimidin-4-yl]oxybenzonitrile], the IC50 is more than 1000 nM.
On to `Cc1nc(Oc2cc(C#N)ccc2-c2ncc(CN)cn2)cc(OC2COC2)n1` [compound 895, 4-[5-(aminomethyl)pyrimidin-2-yl]-3-[2-methyl-6-(oxetan-3-yloxy)pyrimidin-4-yl]oxybenzonitrile], for which the IC50 was more than 1000 nM.
Under `Cc1nc(Oc2cc(C#N)ccc2-c2ncc(CN)cn2)cc(OC(C)C)n1` [compound 896, 4-[5-(aminomethyl)pyrimidin-2-yl]-3-(2-methyl-6-propan-2-yloxypyrimidin-4-yl)oxybenzonitrile] stands 10 to 1000 nM; under `Cc1nc(OCC(F)F)cc(Oc2cc(C#N)ccc2-c2ncc(CN)cn2)n1` [compound 897, 4-[5-(aminomethyl)pyrimidin-2-yl]-3-[6-(2,2-difluoroethoxy)-2-methylpyrimidin-4-yl]oxybenzonitrile], more than 1000 nM.
Under `Cc1nc(Oc2cc(C#N)ccc2-c2ncc(CN)cn2)cc(OC2CC2)n1` [compound 898, 4-[5-(aminomethyl)pyrimidin-2-yl]-3-(6-cyclopropyloxy-2-methylpyrimidin-4-yl)oxybenzonitrile] stands more than 1000 nM; under `Cc1cc(Oc2cc(C#N)c(C)cc2-c2ncc(CN)cn2)cc(N2CCOCC2)n1` [compound 899, 4-[5-(aminomethyl)pyrimidin-2-yl]-2-methyl-5-(2-methyl-6-morpholin-4-ylpyridin-4-yl)oxybenzonitrile], 10 to 1000 nM; under `Cc1cc(Oc2cc(C#N)c(C)cc2-c2ncc(CCN)cn2)cc(N2CCOCC2)n1` [compound 900, 4-[5-(2-aminoethyl)pyrimidin-2-yl]-2-methyl-5-(2-methyl-6-morpholin-4-ylpyridin-4-yl)oxybenzonitrile], less than 10 nM.
Under `Cc1cnc(N2CCOCC2)cc1Oc1cc(C#N)ccc1-c1ncc(CN)cn1` [compound 901, 4-[5-(aminomethyl)pyrimidin-2-yl]-3-(5-methyl-2-morpholin-4-ylpyridin-4-yl)oxybenzonitrile] stands more than 1000 nM; under `Cc1cnc(N2CCOCC2)cc1Oc1cc(C#N)ccc1-c1ncc(CCN)cn1` [compound 902, 4-[5-(2-aminoethyl)pyrimidin-2-yl]-3-(5-methyl-2-morpholin-4-ylpyridin-4-yl)oxybenzonitrile], 10 to 1000 nM.
Consider `Cn1nc(C(F)(F)F)cc1Oc1cc(C#N)ccc1-c1ncc([C@H](F)CN)cn1` [compound 903, 4-[5-[(1S)-2-amino-1-fluoroethyl]pyrimidin-2-yl]-3-[2-methyl-5-(trifluoromethyl)pyrazol-3-yl]oxybenzonitrile], for which the IC50 was less than 10 nM.
On to `Cn1nc(C(F)(F)F)cc1Oc1cc(C#N)ccc1-c1ncc([C@@H](F)CN)cn1` [compound 904, 4-[5-[(1R)-2-amino-1-fluoroethyl]pyrimidin-2-yl]-3-[2-methyl-5-(trifluoromethyl)pyrazol-3-yl]oxybenzonitrile], for which the IC50 is less than 10 nM.
Next, `CN(C)c1cc(Oc2cc(C#N)ccc2-c2ncc([C@H](F)CN)cn2)n(C)n1` [compound 905, 4-[5-[(1S)-2-amino-1-fluoroethyl]pyrimidin-2-yl]-3-[5-(dimethylamino)-2-methylpyrazol-3-yl]oxybenzonitrile]: less than 10 nM; `CN(C)c1cc(Oc2cc(C#N)ccc2-c2ncc([C@@H](F)CN)cn2)n(C)n1` [compound 906, 4-[5-[(1R)-2-amino-1-fluoroethyl]pyrimidin-2-yl]-3-[5-(dimethylamino)-2-methylpyrazol-3-yl]oxybenzonitrile]: less than 10 nM; `CC(C)Cn1cc(Oc2cc(C#N)ccc2-c2ncc(CCN)cn2)cn1` [compound 907, 4-[5-(2-aminoethyl)pyrimidin-2-yl]-3-[1-(2-methylpropyl)pyrazol-4-yl]oxybenzonitrile]: less than 10 nM.
`CC(C)Cn1cc(Oc2cc(C#N)ccc2-c2ncc(CN)cn2)cn1` [compound 908, 4-[5-(aminomethyl)pyrimidin-2-yl]-3-[1-(2-methylpropyl)pyrazol-4-yl]oxybenzonitrile]: the IC50 is less than 10 nM.

(Values after US20230167073A1 (Teijin Pharma Limited, priority 2020, published 2023).)
